Assay results taken from US12145936B1, “7-Imino-5-(1H-indol-3-yl)-1,3-substituted-7,8-dihdropyrimido[4,5-d]pyrimidine-2,4(1H,3H)-dione as anti-inflammatory agents” (KING FAISAL UNIVERSITY, priority 2023, dated 2024).

These compounds were tested against T1, human COX-2 enzyme (Homo sapiens, UniProt P35354) (assay: Cyclooxygenases (COX-2) enzyme inhibition assay, COX (human) Inhibitor Screening Assay Kit with prostaglandin ELISA readout). Conditions: 10 μM compound, in vitro, ELISA plate incubation 18 hours, read-out: % Inhibition (COX-2) Mean ± SEM.
T1 construct: purchased
T1 sequence (P35354 18-604): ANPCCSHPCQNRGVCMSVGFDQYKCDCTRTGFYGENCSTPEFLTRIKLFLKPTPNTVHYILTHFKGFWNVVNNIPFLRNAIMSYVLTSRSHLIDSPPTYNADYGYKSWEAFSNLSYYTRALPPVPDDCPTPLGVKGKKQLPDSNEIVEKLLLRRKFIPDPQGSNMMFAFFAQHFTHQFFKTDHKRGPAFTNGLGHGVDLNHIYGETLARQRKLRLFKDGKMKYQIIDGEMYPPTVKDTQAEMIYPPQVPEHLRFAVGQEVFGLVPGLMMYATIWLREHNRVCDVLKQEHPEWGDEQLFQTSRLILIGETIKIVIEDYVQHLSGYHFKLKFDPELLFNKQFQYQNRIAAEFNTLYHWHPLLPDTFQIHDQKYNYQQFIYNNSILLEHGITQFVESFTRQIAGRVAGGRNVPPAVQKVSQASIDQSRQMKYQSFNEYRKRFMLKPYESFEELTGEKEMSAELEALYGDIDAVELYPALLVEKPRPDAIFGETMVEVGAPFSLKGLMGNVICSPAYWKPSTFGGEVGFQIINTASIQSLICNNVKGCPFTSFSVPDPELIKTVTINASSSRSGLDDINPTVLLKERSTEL
Type: biochemical
Protocol: According to manufacturer instructions, a COX inhibition assay was performed using COX (human) Inhibitor Screening Assay Kit for the compounds 7-imino-5-(1H-indol-3-yl)-1,3-substituted-7,8-dihydropyrimido[4,5-d]pyrimidine-2,4(1H,3H)-dione derivatives (4a-c). All reagents and buffers were prepared in ultrapure water. All stock solutions of the compounds and the positive controls (Indomethacin and Celecoxib) were dissolved in DMSO. In each inhibitor sample tube, 160 μL reaction buffer, 10 μL of heme, 10 μL of diluted COX-2 enzyme, and 10 μL of the diluted inhibitor was added to get a final concentration of 100 μM. […] 10 μL of the vehicle control (DMSO) was added to the background tubes, and COX enzyme's 100% initial activity was obtained. All reaction tubes were incubated for 10 minutes at 37° C. Following this incubation, 10 μL of the substrate, arachidonic acid (AA), was added to all test tubes, mixed, and further incubated for precisely 30 seconds at 37° C. Then, 30 μL of SnCl2 solution was added to each reaction tube to stop the enzyme catalysis. All reaction tubes were removed from the incubator, vortexed, and incubated again for 5 min at room temperature. Reaction tubes were stored at 4° C. to quantify the prostaglandin formation by competitive enzyme-linked immunosorbent assay (ELISA). ELISA standards were prepared in test tubes to perform the competitive ELISA, and dilutions were prepared with the ELISA buffer. The standards, COX reaction dilutions, and background samples were serially diluted. […] Blank (to assess the background absorbance caused by Ellman's reagent) and total activity (TA) (to determine the enzymatic activity of the AChE-linked tracer) wells were left empty, 100 μL and 50 μL of the ELISA buffer were added to the nonspecific binding (NSB) and maximum binding (B0), respectively. […] Finally, the plate reading was done at a wavelength of 405 nm with a Microplate reader from BioTek (by Agilent), and data were collected using Gen5™ (by Agilent) analysis software. […]
`Cn1c(=O)c2c(-c3c[nH]c4ccccc34)nc(=N)[nH]c2n(C)c1=O` [Compound 4c, 7-Imino-5-(1H-indol-3-yl)-1,3-dimethyl-7,8-dihydropyrimido[4,5-d]pyrimidine-2,4(1H,3H)-dione] was tested, and the inhibition at 10 µM was 98 ± 1.53%.
In the case of `N=c1nc(-c2c[nH]c3ccccc23)c2c(=O)[nH]c(=O)[nH]c2[nH]1` [Compound 4a, 7-Imino-5-(1H-indol-3-yl)-7,8-dihydropyrimido[4,5-d]pyrimidine-2,4(1H,3H)-dione], the inhibition at 10 µM is reported as 23 ± 5.1%.
With `N=c1nc(-c2c[nH]c3ccccc23)c2c(=O)[nH]c(=S)[nH]c2[nH]1` [Compound 4b, 7-Imino-5-(1H-indol-3-yl)-2-thioxo-2,3,7,8-tetrahydropyrimido[4,5-d]pyrimidin-4(1H)-one] the inhibition at 10 µM was 88 ± 2.91%.
